For seven compounds, mortality results are on record in patent US10435411B2, “Oxime group-containing quinoline compound, N-oxide thereof or salt thereof, agricultural and horticultural insecticide comprising the compound, and method for using the insecticide” (Nihon Nohyaku Co., Ltd., priority 2016, dated 2019).

In test [1] the test system is Plutella xylostella. Kind of test: Insecticidal test on Plutella xylostella (dip of Chinese cabbage seedlings with laid eggs). The note with it: 144 h, seedlings with laid eggs dipped about 30 seconds, 25° C., 6 days after dip treatment, criteria of Test Example 2, read-out: insecticidal efficacy (corrected mortality rate) activity level. It counts as in vivo. The source says: Insecticidal Test on Plutella xylostella
Adults of Plutella xylostella were released onto Chinese cabbage seedlings and allowed to lay eggs thereon. At 2 days after the release of the adults, the Chinese cabbage seedlings with laid eggs were dipped for about 30 seconds in agrochemical dispersions diluted to 500 ppm, each of which contained a different kind of oxime group-containing quinoline compound represented by the general formula (1) of the present invention as an active ingredient. After air-dried, the seedlings were kept in a thermostatic chamber at 25° C. At 6 days after the dip treatment, the number of hatched larvae per plot was counted, the mortality rate was calculated according to the formula shown below, and the insecticidal efficacy was evaluated according to the criteria of Test Example 2. This test was conducted in triplicate using 10 adults of Plutella xylostella per plot. Corrected mortality rate (%)=100×(Number of hatched larvae in a non-treatment plot−Number of hatched larvae in a treatment plot)/Number of hatched larvae in a non-treatment plot [Math. 3]

Test [2] has as its system Laodelphax striatellus. The experiment in a line: Insecticidal test on Laodelphax striatellus (rice seedling dip). It counts as in vivo. As to conditions: 192 h, rice seedlings dipped 30 seconds, 3rd-instar larvae, 8 days after inoculation, read-out: insecticidal efficacy (corrected mortality rate) activity level. The source says: Insecticidal Test on Laodelphax striatellus
The oxime group-containing quinoline compounds represented by the general formula (1) of the present invention or salts thereof were separately dispersed in water and diluted to 500 ppm. Rice plant seedlings (variety: Nihonbare) were dipped in the agrochemical dispersions for 30 seconds. After air-dried, each seedling was put into a separate glass test tube and inoculated with ten 3rd-instar larvae of Laodelphax striatellus, and then the glass test tubes were capped with cotton plugs. At 8 days after the inoculation, the numbers of surviving larvae and dead larvae were counted, the corrected mortality rate was calculated according to the formula shown below, and the insecticidal efficacy was evaluated according to the criteria shown below. Corrected mortality rate (%)=100×(Survival rate in a non-treatment plot−Survival rate in a treatment plot)/Survival rate in a non-treatment plot [Math. 2] Criteria A: the corrected mortality rate is 100%. B: the corrected mortality rate is 90 to 99%. C: the corrected mortality rate is 80 to 89%. D: the corrected mortality rate is 50 to 79%.

Structures are written as SMILES.

In general, mortality refers to the percentage killed.

Turning to `CCS(=O)(=O)c1cc2cc(/C=N/OCC(F)(F)F)ccc2nc1-c1nc2cc(C(F)(F)F)cnc2n1C` [Compound 1-7, (E)-3-(ethylsulfonyl)-2-(3-methyl-6-(trifluoromethyl)-3H-imidazo[4,5-b]pyridin-2-yl)quinoline-6-carbaldehyde O-(2,2,2-trifluoroethyl)oxime], the mortality at 500 ppm in test [1] and in test [2] was 100% throughout.
For `CCS(=O)(=O)c1cc2cc(/C=N/O)ccc2nc1-c1nc2cc(C(F)(F)F)cnc2n1C` [Compound 1-1, (E)-3-(ethylsulfonyl)-2-(3-methyl-6-(trifluoromethyl)-3H-imidazo[4,5-b]pyridin-2-yl)quinoline-6-carbaldehyde oxime], the mortality at 500 ppm in test [1] and in test [2] was 100% in each case.
For `CCS(=O)(=O)c1cc2cc(/C(C)=N/O)ccc2nc1-c1nc2cc(SC(F)(F)F)ccc2o1` [Compound 3-2, 1-(3-(ethylsulfonyl)-2-(5-(trifluoromethylthio)benzo[d]oxazol-2-yl)quinolin-6-yl)ethanone oxime], the mortality at 500 ppm in test [1] and in test [2] was 100% in each case.
Regarding `CCS(=O)(=O)c1cc2ccc(/C=N/OCS(C)(=O)=O)cc2nc1-c1nc2cc(C(F)(F)F)cnc2n1C` [Compound 2-25, 3-(ethylsulfonyl)-2-(3-methyl-6-(trifluoromethyl)-3H-imidazo[4,5-b]pyridin-2-yl)quinoline-7-carbaldehyde O-(methylsulfonylmethyl)oxime], the mortality at 500 ppm in test [1] and in test [2] was 100% throughout.
Consider `CCS(=O)(=O)c1cc2cc(/C(C)=N/OCC(F)(F)F)ccc2nc1-c1nc2cc(SC(F)(F)F)ccc2o1` [Compound 3-8, 1-(3-(ethylsulfonyl)-2-(5-(trifluoromethylthio)benzo[d]oxazol-2-yl)quinolin-6-yl)ethanone O-(2,2,2-trifluoroethyl)oxime], for which the mortality at 500 ppm in test [1] and in test [2] was 100% in each case.
With `CCS(=O)(=O)c1cc2ccc(/C=N/OCSC)cc2nc1-c1nc2cc(C(F)(F)F)cnc2n1C` [Compound 2-19, 3-(ethylsulfonyl)-2-(3-methyl-6-(trifluoromethyl)-3H-imidazo[4,5-b]pyridin-2-yl)quinoline-7-carbaldehyde O-(methylthiomethyl)oxime], the mortality at 500 ppm in test [1] and in test [2] was 100% throughout.
On to `CCS(=O)(=O)c1cc2ccc(/C=N/OC[S+](C)[O-])cc2nc1-c1nc2cc(C(F)(F)F)cnc2n1C` (centres unmarked) [Compound 2-24, 3-(ethylsulfonyl)-2-(3-methyl-6-(trifluoromethyl)-3H-imidazo[4,5-b]pyridin-2-yl)quinoline-7-carbaldehyde O-(methylsulfinylmethyl)oxime], for which the mortality at 500 ppm in test [1] and in test [2] was 100% throughout.
